Results published in patent US20060069132A1, “Azolecarboxamide herbicides” (priority 2004, published 2006).

What was measured:
[1] = test system: rice; test: Test C flooded paddy test; type: in vivo, Oryza sativa; details: for Plant response rating, Rice: 500 g ai/ha, visual rating after 12 to 14 days
Outline: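 Postemergence sprays applied to plants 2 to 18 cm tall (1- to 4-leaf stage); paddy species grown to 2-leaf stage under flooding. After 12 to 14 days in greenhouse, visual rating versus untreated controls on 0–100 scale (0 no effect, 100 complete control).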

[2] = test system: common ragweed; test: Test C pre-/postemergence herbicide test; type: in vivo, Ambrosia elatior; parameters: key to Plant response rating, Ragweed: 0 = no effect, 100 = complete control
Outline: (§1)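 Visual injury scores run from 0 (no effect) to 100 (complete control), assessed relative to untreated controls 12 to 14 days after treatment in the greenhouse. Chemicals were formulated in a non-phytotoxic solvent mixture with surfactant and applied to soil after planting or to emerged plants at the 1- to 4-leaf stage.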

[3] = test system: cocklebur; test: Test C pre-/postemergence herbicide test; type: in vivo, Xanthium strumarium; details: for Cocklebur plant response rating: 500 g ai/ha
Outline: as §1

[4] = test system: ducksalad; test: Test B flooded paddy test; type: in vivo, Heteranthera limosa; details: 1000 g ai/ha, scale 0 to 100 (0 no effect, 100 complete control)
Outline: (§2)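 Paddy species grown to the 2-leaf stage under flooding; blackgrass sprayed postemergence at 2–18 cm (1- to 4-leaf stage). Plants kept in a greenhouse for 13 to 15 days, then visually rated against controls on 0 (no effect) to 100 (complete control).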

[5] = test system: common (oilseed) sunflower; test: Test C pre-/postemergence herbicide test; type: in vivo, Helianthus annuus; details: preemergence
Outline: as §1

[6] = test system: rice; test: Test B pre-/postemergence herbicide test; type: in vivo, Oryza sativa; details: preemergence; for Rice plant response rating (0 to 100 scale) / Plant response rating, Rice: 0 = no effect, 100 = complete control; for Plant response rating, Rice: 500 g ai/ha, visual rating
Outline: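 Plants compared with untreated controls 13–15 days post-treatment and given a visual 0–100 injury score. Applications: preemergence to seeds; postemergence at 1- to 4-leaf (2–18 cm); paddy species flooded, 2-leaf stage. Vehicle non-phytotoxic, surfactant included.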

[7] = test system: giant foxtail; test: Test C pre-/postemergence herbicide test; type: in vivo, Setaria faberi
Outline: as §1

[8] = test system: johnsongrass; test: Test C pre-/postemergence herbicide test; type: in vivo, Sorghum halepense
Outline: as §1

[9] = test system: blackgrass; test: Test B postemergence herbicide test; type: in vivo, Alopecurus myosuroides; details: postemergence
Outline: as §2

[10] = 125 g ai/ha, scale 0 to 100 (0 no effect, 100 complete control)
[11] = 250 g ai/ha, scale of 0 to 100, 0 is no effect, 100 is complete control
[12] = scale 0 to 100 (0 no effect, 100 complete control)
[13] = 62 g ai/ha, preemergence, scale 0 to 100
[14] = 250 g ai/ha, scale 0-100, preemergence
[15] = 500 g ai/ha, scale 0 to 100 (0 no effect, 100 complete control), visual, 12 to 14 days, preemergence
[16] = Preemergence, scale 0 to 100, 0 no effect, 100 complete control
[17] = 125 g ai/ha, scale 0 (no effect) to 100 (complete control), visual, 12 to 14 days, preemergence
[18] = 125 g ai/ha, visual rating, scale 0 (no effect) to 100 (complete control)
[19] = 500 g ai/ha, scale 0 to 100, 0 is no effect, 100 is complete control
[20] = 500 g ai/ha, scale 0 to 100 (0 no effect, 100 complete control), visual, 12 to 14 days
[21] = Postemergence, 500 g ai/ha, scale 0 to 100
[22] = Postemergence, 250 g ai/ha, scale 0 to 100, 0 no effect, 100 complete control
[23] = postemergence, 125 g ai/ha, scale 0 to 100
[24] = postemergence, 62 g ai/ha, scale 0 to 100

CCc1nn(C(C)(C)C)cc1C(=O)Nc1cc(C(=O)N(C)C)ccn1 [Compound 293]
Rice plant response rating ([1]; 62 g ai/ha, scale 0 to 100): 0 | Rice plant response rating [1, 10]: 30 | Rice plant response rating [1, 11]: 65 | Plant response rating, Rice [1, 12]: 80 | Plant response rating, Ragweed [2, 13]: 85 | Plant response rating, Ragweed [2, 14]: 100 | Plant response rating, Ragweed [2, 15]: 100 | Plant response rating, Cocklebur [3, 13]: 0 | Plant response rating, Cocklebur [3, 14]: 20 | Cocklebur plant response rating [3, 16]: 60 | Ducksalad plant response rating [4]: 80 | Plant response rating, Sunflower ([5]; 62 g ai/ha, scale 0 to 100): 10 | Plant response rating, Sunflower ([5]; 250 g ai/ha, scale 0-100): 65 | Rice plant response rating (0 to 100 scale) ([6]; 125 g ai/ha): 90 | Plant response rating, Rice [6]: 100 | Plant response rating, Foxtail, Giant [7, 13]: 10 | Plant response rating, Foxtail, Giant [7, 17]: 70 | Plant response rating, Foxtail, Giant [7, 14]: 100 | Plant response rating, Foxtail, Giant [7, 15]: 100 | Plant response rating, Johnsongrass [8, 13]: 65 | Plant response rating, Johnsongrass [8, 17]: 95 | Plant response rating, Johnsongrass [8, 14]: 100 | Plant response rating, Johnsongrass [8, 15]: 100 | Blackgrass plant response rating [9, 18]: 30 | Blackgrass plant response rating [9, 19]: 30

CCn1nc(C(C)(C)C)cc1C(=O)Nc1cc(C(=S)N(C)C)ccc1F [Compound 294]
Rice plant response rating ([1]; 62 g ai/ha, scale 0 to 100): 70 | Rice plant response rating [1, 10]: 75 | Rice plant response rating [1, 11]: 85 | Plant response rating, Rice [1, 12]: 90 | Plant response rating, Ragweed [2, 13]: 100 | Plant response rating, Ragweed [2, 14]: 100 | Plant response rating, Ragweed [2, 15]: 100 | Plant response rating, Cocklebur [3, 13]: 30 | Plant response rating, Cocklebur [3, 17]: 40 | Plant response rating, Cocklebur [3, 14]: 80 | Cocklebur plant response rating [3, 16]: 85 | Ducksalad plant response rating [4]: 90 | Plant response rating, Sunflower ([5]; 62 g ai/ha, scale 0 to 100): 30 | Plant response rating, Sunflower ([5]; 250 g ai/ha, scale 0-100): 100 | Plant response rating, Sunflower [5, 20]: 100 | Rice plant response rating (0 to 100 scale) ([6]; 125 g ai/ha): 90 | Plant response rating, Rice [6]: 100 | Plant response rating, Foxtail, Giant [7, 17]: 80 | Plant response rating, Foxtail, Giant [7, 14]: 90 | Plant response rating, Foxtail, Giant [7, 15]: 90 | Plant response rating, Johnsongrass [8, 13]: 80 | Plant response rating, Johnsongrass [8, 17]: 100 | Plant response rating, Johnsongrass [8, 14]: 100 | Plant response rating, Johnsongrass [8, 15]: 100 | Blackgrass plant response rating [9, 18]: 20 | Blackgrass plant response rating [9, 19]: 60

CCn1nc(C2(C)CC2)cc1C(=O)Nc1cc(C(=O)N(C)C)ccc1F [Compound 299]
Rice plant response rating ([1]; 62 g ai/ha, scale 0 to 100): 70 | Rice plant response rating [1, 10]: 80 | Rice plant response rating [1, 11]: 80 | Plant response rating, Rice [1, 12]: 85 | Plant response rating, Ragweed [2, 13]: 100 | Plant response rating, Ragweed [2, 14]: 100 | Plant response rating, Ragweed [2, 15]: 100 | Plant response rating, Cocklebur [3, 13]: 0 | Plant response rating, Cocklebur [3, 17]: 40 | Plant response rating, Cocklebur [3, 14]: 80 | Cocklebur plant response rating [3, 16]: 95 | Ducksalad plant response rating [4]: 90 | Plant response rating, Sunflower ([5]; 62 g ai/ha, scale 0 to 100): 10 | Plant response rating, Sunflower ([5]; 250 g ai/ha, scale 0-100): 100 | Plant response rating, Sunflower [5, 20]: 100 | Rice plant response rating (0 to 100 scale) ([6]; 125 g ai/ha): 80 | Plant response rating, Rice [6]: 90 | Plant response rating, Foxtail, Giant [7, 13]: 100 | Plant response rating, Foxtail, Giant [7, 17]: 100 | Plant response rating, Foxtail, Giant [7, 14]: 100 | Plant response rating, Foxtail, Giant [7, 15]: 100 | Plant response rating, Johnsongrass [8, 13]: 85 | Plant response rating, Johnsongrass [8, 17]: 100 | Plant response rating, Johnsongrass [8, 14]: 100 | Plant response rating, Johnsongrass [8, 15]: 100 | Blackgrass plant response rating [9, 18]: 20 | Blackgrass plant response rating [9, 19]: 50

CCn1nc(C(C)(C)C)cc1C(=S)Nc1cc(C(=S)N(C)C)ccc1F [Compound 305]
Rice plant response rating ([1]; 62 g ai/ha, scale 0 to 100): 75 | Rice plant response rating [1, 10]: 80 | Rice plant response rating [1, 11]: 85 | Plant response rating, Rice [1, 12]: 85 | Plant response rating, Ragweed [2, 13]: 10 | Plant response rating, Ragweed [2, 14]: 85 | Plant response rating, Ragweed [2, 15]: 100 | Plant response rating, Cocklebur [3, 13]: 10 | Plant response rating, Cocklebur [3, 17]: 15 | Plant response rating, Cocklebur [3, 14]: 65 | Cocklebur plant response rating [3, 16]: 90 | Ducksalad plant response rating [4]: 80 | Plant response rating, Sunflower ([5]; 62 g ai/ha, scale 0 to 100): 0 | Plant response rating, Sunflower ([5]; 250 g ai/ha, scale 0-100): 0 | Plant response rating, Sunflower [5, 20]: 50 | Rice plant response rating (0 to 100 scale) ([6]; 125 g ai/ha): 70 | Plant response rating, Rice [6]: 80 | Plant response rating, Foxtail, Giant [7, 13]: 35 | Plant response rating, Foxtail, Giant [7, 17]: 85 | Plant response rating, Foxtail, Giant [7, 14]: 100 | Plant response rating, Foxtail, Giant [7, 15]: 100 | Plant response rating, Johnsongrass [8, 13]: 65 | Plant response rating, Johnsongrass [8, 17]: 90 | Plant response rating, Johnsongrass [8, 14]: 95 | Plant response rating, Johnsongrass [8, 15]: 95 | Blackgrass plant response rating [9, 18]: 20 | Blackgrass plant response rating [9, 19]: 30

CCNC(=O)c1cccc(NC(=O)c2cc(C3(C)CC3)nn2CC)c1 [Compound 306]
Rice plant response rating ([1]; 62 g ai/ha, scale 0 to 100): 30 | Rice plant response rating [1, 10]: 40 | Rice plant response rating [1, 11]: 55 | Plant response rating, Rice [1, 12]: 70 | Plant response rating, Ragweed [2, 13]: 0 | Plant response rating, Ragweed [2, 15]: 100 | Plant response rating, Cocklebur [3, 13]: 0 | Plant response rating, Cocklebur [3, 17]: 0 | Plant response rating, Cocklebur [3, 14]: 0 | Cocklebur plant response rating [3, 16]: 5 | Ducksalad plant response rating [4]: 80 | Plant response rating, Sunflower ([5]; 62 g ai/ha, scale 0 to 100): 0 | Plant response rating, Sunflower ([5]; 250 g ai/ha, scale 0-100): 0 | Plant response rating, Sunflower [5, 20]: 0 | Rice plant response rating (0 to 100 scale) ([6]; 125 g ai/ha): 60 | Plant response rating, Rice [6]: 80 | Plant response rating, Foxtail, Giant [7, 13]: 5 | Plant response rating, Foxtail, Giant [7, 17]: 40 | Plant response rating, Foxtail, Giant [7, 14]: 90 | Plant response rating, Foxtail, Giant [7, 15]: 100 | Plant response rating, Johnsongrass [8, 13]: 40 | Plant response rating, Johnsongrass [8, 17]: 60 | Plant response rating, Johnsongrass [8, 14]: 80 | Blackgrass plant response rating [9, 18]: 10 | Blackgrass plant response rating [9, 19]: 30

CCn1nc(C(C)(C)C)cc1C(=O)Nc1cccc(OC(F)F)c1 [Compound 332]
Rice plant response rating ([1]; 62 g ai/ha, scale 0 to 100): 0 | Rice plant response rating [1, 10]: 0 | Rice plant response rating [1, 11]: 45 | Plant response rating, Rice [1, 12]: 70 | Plant response rating, Ragweed [2, 13]: 0 | Plant response rating, Ragweed [2, 14]: 5 | Plant response rating, Ragweed [2, 15]: 70 | Ragweed plant response rating [2, 21]: 60 | Plant response rating, Ragweed [2, 22]: 40 | Plant response rating, Ragweed [2, 23]: 30 | Plant response rating, Ragweed [2, 24]: 5 | Plant response rating, Cocklebur [3, 13]: 0 | Plant response rating, Cocklebur [3, 17]: 0 | Plant response rating, Cocklebur [3, 14]: 0 | Cocklebur plant response rating ([3]; Postemergence, scale 0 to 100): 15 | Plant response rating, Cocklebur [3, 22]: 10 | Cocklebur plant response rating [3, 16]: 0 | Plant response rating, Cocklebur [3, 23]: 10 | Plant response rating, Cocklebur [3, 24]: 5 | Ducksalad plant response rating [4]: 90 | Plant response rating, Sunflower ([5]; 62 g ai/ha, scale 0 to 100): 0 | Plant response rating, Sunflower ([5]; 250 g ai/ha, scale 0-100): 0 | Plant response rating, Sunflower [5, 20]: 0 | Plant response rating (0 to 100 scale), Rice ([6]; 125 g ai/ha, 0 is no effect, 100 is complete control): 20 | Plant response rating, Rice [6]: 40 | Plant response rating, Foxtail, Giant [7, 13]: 0 | Plant response rating, Foxtail, Giant [7, 17]: 20 | Plant response rating, Foxtail, Giant [7, 14]: 60 | Plant response rating, Foxtail, Giant [7, 15]: 80 | Foxtail, Giant plant response rating [7, 21]: 20 | Plant response rating, Foxtail, Giant [7, 22]: 15 | Plant response rating, Foxtail, Giant [7, 23]: 10 | Plant response rating, Foxtail, Giant [7, 24]: 10 | Plant response rating, Johnsongrass [8, 13]: 0 | Plant response rating, Johnsongrass [8, 17]: 10 | Plant response rating, Johnsongrass [8, 14]: 50 | Plant response rating, Johnsongrass [8, 15]: 80 | Johnsongrass plant response rating [8, 21]: 5 | Plant response rating, Johnsongrass [8, 22]: 5 | Plant response rating, Johnsongrass [8, 23]: 5 | Plant response rating, Johnsongrass [8, 24]: 0 | Blackgrass plant response rating [9, 18]: 40 | Blackgrass plant response rating [9, 19]: 80
